Source: ChEMBL document CHEMBL1201862, “PubChem BioAssay data set” (2004)
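Step 1: Grow cells in 96-well plates. Step 2: Expose to compound for 48 hours at 5 concentrations. Step 3: Interpolate endpoints linearly; if unreached, use highest concentration. The concentration for 50% growth inhibition is given as GI50.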 Activity calls are given as the source filed them. Cut-off read from the data, not from the text of the source: active = GI50 up to about 1.1 µM and inactive = higher.

Columns and labels:
Assay in all cases: inhibition of tumour cell growth, NCI panel, 48 h
[1] = test system: RXF 393
[2] = test system: SNB-19
[3] = test system: SF-539
[4] = test system: SN12C
[5] = test system: A549
[6] = test system: SK-MEL-5
[7] = test system: KM12
[8] = test system: HCT-15
[9] = test system: Malme-3M
[10] = test system: OVCAR-5
[11] = test system: EKVX
[12] = test system: SF-295
[13] = test system: NCI-H460
[14] = test system: HOP-62
[15] = test system: MCF7
[16] = test system: OVCAR-4
[17] = test system: UACC-257
[18] = test system: SNB-75
[19] = test system: NCI-H522
[20] = test system: COLO 205

Compound: CN(C)c1ccc(/C=C/c2ccc3ccccc3[n+]2C)cc1
- GI50 [1]: 2.81 µM (inactive)
- GI50 [2]: 4.31 µM (inactive)
- GI50 [3]: 5.24 µM (inactive)
- GI50 [4]: 2.96 µM (inactive)
- GI50 [5]: 3.13 µM (inactive)
- GI50 [6]: 3.06 µM (inactive)
- GI50 [7]: 3.42 µM (inactive)
- GI50 [8]: 6.65 µM
- GI50 [9]: 4.53 µM (inactive)
- GI50 [10]: 7.01 µM (inactive)
- GI50 [11]: 1.62 µM (inactive)
- GI50 [12]: 2.95 µM (inactive)
- GI50 [13]: 3.64 µM (inactive)
- GI50 [14]: 7.13 µM (inactive)
- GI50 [15]: 1.64 µM (inactive)

Compound: O=C1OC(c2ccccc2)=N/C1=C/c1cccs1
- GI50 [1]: > 100 µM (inactive)
- GI50 [2]: 61.9 µM (inactive)
- GI50 [16]: 41 µM (inactive)
- GI50 [3]: 27.6 µM (inactive)
- GI50 [17]: 65.6 µM (inactive)
- GI50 [5]: > 100 µM (inactive)
- GI50 [7]: 56 µM (inactive)
- GI50 [8]: 36.7 µM
- GI50 [10]: > 100 µM (inactive)
- GI50 [18]: 42.4 µM (inactive)
- GI50 [11]: > 100 µM (inactive)
- GI50 [12]: > 100 µM (inactive)
- GI50 [13]: > 100 µM (inactive)
- GI50 [14]: 48.5 µM (inactive)
- GI50 [15]: > 100 µM (inactive)

Compound: COC(=O)C(COC(C)=O)NC(=O)/C=C/c1ccc(O)c(OC(C)=O)c1 (stereo not drawn)
- GI50 [2]: > 100 µM (inactive)
- GI50 [16]: 70.8 µM (inactive)
- GI50 [3]: 15.1 µM (inactive)
- GI50 [19]: 11.4 µM (inactive)
- GI50 [17]: > 100 µM (inactive)
- GI50 [4]: > 100 µM (inactive)
- GI50 [5]: > 100 µM (inactive)
- GI50 [6]: > 100 µM (inactive)
- GI50 [7]: 67.1 µM (inactive)
- GI50 [8]: 8.97 µM
- GI50 [9]: > 100 µM (inactive)
- GI50 [20]: > 100 µM (inactive)
- GI50 [10]: > 100 µM (inactive)
- GI50 [18]: > 100 µM (inactive)
- GI50 [11]: > 100 µM (inactive)
- GI50 [12]: > 100 µM (inactive)
- GI50 [13]: 60.3 µM (inactive)
- GI50 [14]: 49.3 µM (inactive)
- GI50 [15]: > 100 µM (inactive)

Compound: COC(=O)c1c2c(cc3c1CCC3)CCC2
- GI50 [2]: > 100 µM (inactive)
- GI50 [16]: 82.2 µM (inactive)
- GI50 [3]: 92.7 µM (inactive)
- GI50 [19]: 46.6 µM (inactive)
- GI50 [17]: 48 µM (inactive)
- GI50 [4]: > 100 µM (inactive)
- GI50 [5]: 61.2 µM (inactive)
- GI50 [6]: 15.9 µM (inactive)
- GI50 [7]: 65.3 µM (inactive)
- GI50 [8]: 57.8 µM
- GI50 [9]: 48.2 µM (inactive)
- GI50 [20]: 96.2 µM (inactive)
- GI50 [10]: > 100 µM (inactive)
- GI50 [18]: 28.4 µM (inactive)
- GI50 [11]: 39.6 µM (inactive)
- GI50 [12]: 29.9 µM (inactive)
- GI50 [13]: 94.6 µM (inactive)
- GI50 [14]: > 100 µM (inactive)
- GI50 [15]: 38.7 µM (inactive)

Compound: C#C[C@]1(O)CC[C@H]2[C@@H]3CCC4=C/C(=N/NC(=O)c5cccc6cc7ccccc7nc56)CC[C@@H]4[C@H]3CC[C@@]21CC
- GI50 [1]: > 100 µM (inactive)
- GI50 [2]: > 100 µM (inactive)
- GI50 [16]: > 100 µM (inactive)
- GI50 [3]: 33.9 µM (inactive)
- GI50 [17]: > 100 µM (inactive)
- GI50 [4]: 35.4 µM (inactive)
- GI50 [5]: 47 µM (inactive)
- GI50 [6]: 21.9 µM (inactive)
- GI50 [7]: > 100 µM (inactive)
- GI50 [8]: 56 µM
- GI50 [20]: 70.5 µM (inactive)
- GI50 [10]: 77.3 µM (inactive)
- GI50 [18]: > 100 µM (inactive)
- GI50 [13]: 36.3 µM (inactive)
- GI50 [14]: 67.9 µM (inactive)
- GI50 [15]: 38.4 µM (inactive)

Compound: O=c1[nH]c(Nc2ccc(Br)c(C(F)(F)F)c2)nc2[nH]cnc12
- GI50 [2]: 39.6 µM (inactive)
- GI50 [16]: 47.1 µM (inactive)
- GI50 [3]: 34.5 µM (inactive)
- GI50 [19]: 18.5 µM (inactive)
- GI50 [17]: 82 µM (inactive)
- GI50 [4]: 43.3 µM (inactive)
- GI50 [5]: 72.1 µM (inactive)
- GI50 [6]: 29.9 µM (inactive)
- GI50 [7]: 29 µM (inactive)
- GI50 [8]: 76 µM
- GI50 [9]: 38.8 µM (inactive)
- GI50 [20]: 20.8 µM (inactive)
- GI50 [10]: 32.3 µM (inactive)
- GI50 [18]: 25.6 µM (inactive)
- GI50 [11]: 80.2 µM (inactive)
- GI50 [12]: 54.1 µM (inactive)
- GI50 [13]: 45.2 µM (inactive)
- GI50 [14]: 48.8 µM (inactive)
- GI50 [15]: 51.5 µM (inactive)

Compound: CN1C(=O)C(O)C[C@@H]1c1ccc(F)cc1 (stereo partly drawn)
- GI50 [1]: > 100 µM (inactive)
- GI50 [2]: > 100 µM (inactive)
- GI50 [16]: > 100 µM (inactive)
- GI50 [3]: > 100 µM (inactive)
- GI50 [17]: > 100 µM (inactive)
- GI50 [4]: > 100 µM (inactive)
- GI50 [5]: > 100 µM (inactive)
- GI50 [6]: > 100 µM (inactive)
- GI50 [8]: > 100 µM
- GI50 [20]: > 100 µM (inactive)
- GI50 [10]: > 100 µM (inactive)
- GI50 [11]: > 100 µM (inactive)
- GI50 [12]: > 100 µM (inactive)
- GI50 [14]: > 100 µM (inactive)
- GI50 [15]: > 100 µM (inactive)
